Assay results taken from the NIST ThermoML archive (doi:10.1021/acs.jced.7b00694).

Assay: xn = mol fraction of the nth substance listed
Conditions: Gas, Buoyancy - hydrostatic balance with magnetic suspension - one sinker

[HH] [hydrogen] + N#N
Conditions | mass density [kg/m3]
324.95 K, 4997 kPa, x2 = 0.95 | 49.08
324.95 K, 4998 kPa, x2 = 0.9 | 46.597
324.95 K, 5000 kPa, x2 = 0.5001 | 27.194
324.95 K, 5997 kPa, x2 = 0.9 | 55.762
324.95 K, 5997 kPa, x2 = 0.95 | 58.767
324.95 K, 6001 kPa, x2 = 0.5001 | 32.482
324.95 K, 6997 kPa, x2 = 0.9 | 64.863
324.95 K, 7000 kPa, x2 = 0.95 | 68.408
324.95 K, 7002 kPa, x2 = 0.5001 | 37.712
324.95 K, 7996 kPa, x2 = 0.5001 | 42.85
324.95 K, 7997 kPa, x2 = 0.95 | 77.913
324.95 K, 7998 kPa, x2 = 0.9 | 73.894
324.95 K, 8997 kPa, x2 = 0.5001 | 47.967
324.95 K, 8998 kPa, x2 = 0.9 | 82.834
324.95 K, 8999 kPa, x2 = 0.95 | 87.379
324.95 K, 9998 kPa, x2 = 0.5001 | 53.025
324.95 K, 9998 kPa, x2 = 0.9 | 91.672
324.95 K, 9999 kPa, x2 = 0.95 | 96.736
324.95 K, 10996 kPa, x2 = 0.5001 | 58.014
324.95 K, 10996 kPa, x2 = 0.95 | 105.963
324.95 K, 10997 kPa, x2 = 0.9 | 100.42
324.95 K, 11997 kPa, x2 = 0.5001 | 62.949
324.95 K, 11999 kPa, x2 = 0.9 | 109.068
324.95 K, 12979 kPa, x2 = 0.95 | 123.971
324.95 K, 12995 kPa, x2 = 0.5001 | 67.81
324.95 K, 13000 kPa, x2 = 0.9 | 117.611
324.95 K, 13992 kPa, x2 = 0.5001 | 72.609
324.95 K, 13997 kPa, x2 = 0.9 | 126.005
324.95 K, 13998 kPa, x2 = 0.95 | 133.041
324.95 K, 14993 kPa, x2 = 0.5001 | 77.366
324.95 K, 14996 kPa, x2 = 0.9 | 134.301
324.95 K, 15985 kPa, x2 = 0.5001 | 82.016
324.95 K, 15998 kPa, x2 = 0.9 | 142.496
324.95 K, 16998 kPa, x2 = 0.5001 | 86.706
324.95 K, 17000 kPa, x2 = 0.9 | 150.561
324.95 K, 17998 kPa, x2 = 0.5001 | 91.271
324.95 K, 18003 kPa, x2 = 0.9 | 158.509
324.95 K, 18996 kPa, x2 = 0.5001 | 95.768
324.95 K, 19001 kPa, x2 = 0.9 | 166.298
324.95 K, 19974 kPa, x2 = 0.5001 | 100.115
349.93 K, 2982 kPa, x2 = 0.95 | 27.214
349.93 K, 12999 kPa, x2 = 0.95 | 114.314
349.93 K, 13999 kPa, x2 = 0.95 | 122.495
349.93 K, 14993 kPa, x2 = 0.95 | 130.518
349.93 K, 15998 kPa, x2 = 0.95 | 138.524
349.94 K, 997 kPa, x2 = 0.95 | 9.137
349.94 K, 998 kPa, x2 = 0.9 | 8.697
349.94 K, 999 kPa, x2 = 0.5001 | 5.133
349.94 K, 1998 kPa, x2 = 0.5001 | 10.223
349.94 K, 1998 kPa, x2 = 0.95 | 18.271
